From US12161641B2, “Treatments and prevention of opioid neonatal abstinence syndrome” (Ohio State Innovation Foundation, priority 2016, dated 2024) come the findings set out here.

One series concerns pre-weaning age mice. Put plainly: Naloxone-induced withdrawal jumping after morphine dosing in early postnatal mice. In kind it is in vivo. The protocol:
Animals were injected with morphine alone or morphine mixed with increasing amounts of 6β-naltrexol. Injections were started on postnatal day 12 (PD12) and continued for 5 days. On days 1-3 morphine was injected at 10 mg/kg, and at 20 mg/kg on days 4 and 5. On day 6 (PD18) a final injection of 20 mg/kg was made, and 3 hours later mice were injected with 30 mg/kg naloxone to induce withdrawal. All injections were subcutaneous. When Morphine was co-injected with 6β-naltrexol the latter was held at a constant ratio when the Morphine dose was increased on days 4-6. Because of the changing Morphine dosages the 6β-naltrexol dose is reported as a ratio relative to Morphine, or as a dose range. Immediately upon injection with naloxone mice were placed in a clear plastic container with a 6 inch square base and 10 inches tall, with a lid. Withdrawal jumping was videotaped and jumps were scored in a 15 minute interval.
Summary data are presented as means+1 SEM unless otherwise indicated Continuous data (drug concentrations) were analyzed using one-way ANOVA and post hoc comparisons were made using either Dunnett's procedure (for one-to-many comparisons) or t-tests (for all-pairs contrasts). In the latter case, p-values were adjusted for multiple comparisons using Hommel's method (Hommel, G. (1988) Biometrika 75:383-386). Data were log transformed to account for heteroscedasticity. When ratio values such as the brain/plasma ratio were compared, these were log-transformed before analysis to account for the constrained structure of ratio variables (e.g., Heslop, D. (2009) Geophys. J. Int. 178:159-161; Schilling K, et al. (2012) J Neurosci. 32:12651-12656). The dependence of jumping behavior on 6β-naltrexol levels was modelled using a 4-parametric log-normal curve taking into account that the response was a count variable. AUCs were integrated over the time span analyzed (i.e., from 0 to 240 min; Wolfsegger, M J, et al. (2009) J Pharmacokinet Pharmacodyn 36:479-494). Confidence intervals for AUCs were obtained by bootstrapping, as recommended in Jaki & Wolfsegger (Jaki, T, et al (2009) Pharmaceutical Statistics 8:12-24). All statistical procedures were implemented in R (R Core Team, 2015), using the packages multcomp (Hothorn, T, et al. (2008) Biometrical Journal 50:346-363) for multiple comparisons, PK (Jaki, T, et al. (2011) Pharmaceutical Statistics 10:284-288) for pharmacokinetic analyses, and drc (Ritz, C, et al. (2005) Bioassay analysis using R. J. Stat. Softw. 12:22) for dose-response fitting.
Considering that 6β-naltrexol continues to penetrate the brain at high levels prior to PD20 experiments were conducted to determine whether concomitant administration of 6β-naltrexol reduces withdrawal behaviors in pre-weaning age mice. A morphine dosing schedule was adapted based on studies in early postnatal rats and adult mice (Kest B. et al. (2002) Neuroscience 115:463-469; Jones, K L, et al. (1995) Behav. Neurosci. 109:1189-1198). Mice were injected with morphine alone, with morphine in combination with increasing concentrations of 6β-naltrexol, or saline alone, starting at P12 and continuing for 6 days. Withdrawal was then induced with an injection of naloxone. There was robust jumping characteristic of adult withdrawal behavior (Kest B, et al. (2002) Neuroscience 115.463-469), but not previously reported for pre-weaning mice or rats to our knowledge. […] At the highest dose tested, 0.5-1.0 mg/kg (= 1/20th that of morphine), withdrawal jumping is 94% reduced. The lowest 6β-naltrexol dose tested, 0.0033-0.0066 mg/kg (= 1/3000th that of morphine) caused a 20% decrease in jumping. There is also a time component to the effect of 6β-naltrexol on jumping behavior (FIG. 3B). As 6β-naltrexol levels were increased the jumps observed in a 15 minute testing bout were increasingly delayed. […]

Series [1] can be described thus: Weight gain during 6 day morphine dosing schedule. In kind it is in vivo, mice. To be noted: increasing concomitant doses with morphine; 6 day dosing schedule. The protocol:
Total jumps were counted over a period of 15 minutes starting immediately after the injection of naloxone to induce withdrawal. Two concentration ramping procedure were used for the morphine injections with commensurate ramping of 6β-naltrexol. Data are plotted using the lower of the two drug concentrations. Asterisks indicate a significant difference compared to morphine treated animals with no 6β-naltrexol; *p<0.05; **p<0.01. […] Bidirectional arrows indicate the time bin for each 6β-naltrexol dose where an equal number of jumps occur prior to and after that time bin. Note that this timepoint increases with increasing 6β-naltrexol. Asterisk indicates a significant effect of the 1/3000, 1/1000, and 1/200 doses of 6β-naltrexol compared to morphine-alone in the first three time bins. […] The mass of each mouse was determined before and after the 6 day morphine dosing schedule and the percent weight change was determined. Asterisk indicates significant difference from animals that received morphine but no (“0”) 6β-naltrexol (p<0.05). In FIG. 3A, the number in parentheses indicates the number of animals tested at each drug concentration. […]
Animals were injected with morphine alone or morphine mixed with increasing amounts of 6β-naltrexol. […] Withdrawal jumping was videotaped and jumps were scored in a 15 minute interval. […]

With `Oc1ccc2c3c1O[C@H]1[C@H](O)CC[C@@]4(O)[C@@H](C2)N(CC2CC2)CC[C@]314` [6β-naltrexol], the “total jumps in the first three time bins (up to 4.5 mins)” value in the series on pre-weaning age mice (0.0033 mg/kg, 73+28 with no 6β-naltrexol, p=0.07) is 37+29 jumps. For the same compound, the latency-to-first-jump in the series with pre-weaning age mice (0.01-0.02 mg/kg (1/1000th the dose of morphine)) is 118+31 sec; in the series on pre-weaning age mice (0.05-0.1 mg/kg (1/200th the dose of morphine)), 163+46 sec; with pre-weaning age mice (lowest dose (1/3000th the dose of morphine), 38+8 sec with no 6β-naltrexol) it was 128+44 sec. Further, the Survival in the series with pre-weaning age mice (all conditions and all animals tested by this procedure) was determined as 100%. The “inhibitory dose 50 (ID50), withdrawal jumping” value with pre-weaning age mice (co-injected with morphine 10-20 mg/kg s.c. PD12-PD18, naloxone 30 mg/kg, jumps in 15 minutes) is 0.022 to 0.044 mg/kg. Further, the withdrawal jumping reduced in the series on pre-weaning age mice (highest dose tested, 0.5-1.0 mg/kg (1/20th that of morphine)) is recorded as 94%. In the series with pre-weaning age mice (lowest dose tested, 0.0033-0.0066 mg/kg (1/3000th that of morphine)), the decrease in jumping is given as 20%. The “ID50 dose lower than the morphine dose used for inducing dependence” value in the series with pre-weaning age mice (mouse, in vivo) is recorded as ~500 fold. In the series with pre-weaning age mice (ratio of 6β-naltrexol to morphine), the “ID50 relative to the morphine dose” value is given as 1/450. Moreover, the “effect on inhibition of weight gain by morphine” value in series [1] is “alleviated”.
